{"source": "patent US20210298296A1", "about": "“METHOD OF PREVENTING MICROBES IN DISPOSABLE PRODUCTS” (priority 2020, published 2021)", "origin": "cited, not measured here", "key": {"[1]": {"system": "S. aureus, Staphylococcus epidermidis, Propionibacterium acnes"}, "Staphylococcus aureus": {"system": "Staphylococcus aureus", "conditions": "in vitro"}, "[2]": {"system": "influenza virus subtype H1N1"}, "[3]": {"system": "cells activated by monocytes", "conditions": "water-soluble components of Tea Tree Oil"}, "[4]": {"system": "nail fungus (onychomycosis)", "conditions": "117 patients; six months, twice-daily topical 1% clotrimazole or 100% Tea Tree Oil"}, "[5]": {"conditions": "104 patients, 10% w/w Tea Tree Oil cream vs 1% tolnaftate vs placebo"}}}
{"molecule": "CC1=CCC2CC1C2(C)C", "note": "(stereo not drawn) [alpha-pinene]", "values": [{"measurement": "inhibitory effect on all three organisms", "setting": "[1]", "value": "inhibitory"}]}
{"molecule": "CC1=CCC(C(C)(C)O)CC1", "note": "(stereo not drawn) [alpha-terpineol]", "values": [{"measurement": "inhibitory effect on all three organisms", "setting": "[1]", "value": "inhibitory"}]}
{"molecule": "CC1=CCC(O)(C(C)C)CC1", "note": "(stereo not shown) [Terpinen-4-ol, 4-methyl-1-(1-methylethyl)-3-cyclohexen-1-ol]", "values": [{"measurement": "activity against Staphylococcus aureus, Terpinen-4-ol compared with whole Tea Tree Oil", "setting": "Staphylococcus aureus", "value": "equally effective"}, {"measurement": "inhibitory effect on all three organisms", "setting": "[1]", "value": "inhibitory"}, {"measurement": "antiviral activity against influenza virus subtype H1N1", "setting": "[2]", "value": "principally attributed to Terpinen-4-ol"}, {"measurement": "contribution to the antiprotozoal activity of Tea Tree Oil", "setting": "Leishmania major", "value": "contributed significantly to this activity"}, {"measurement": "contribution to the antiprotozoal activity of Tea Tree Oil", "setting": "Trypanosoma brucei", "value": "contributed significantly to this activity"}, {"measurement": "inflammatory response", "setting": "[3]", "value": "suppress the inflammatory response"}, {"measurement": "growth of human melanoma cells", "setting": "human melanoma cells", "value": "impair the growth of human melanoma cells"}]}
{"molecule": "Clc1ccccc1C(c1ccccc1)(c1ccccc1)n1ccnc1", "note": "[clotrimazole]", "values": [{"measurement": "clinical resolution of the infection", "setting": "[4]", "value": "clinically documented resolution of the infection"}, {"measurement": "fungus in cultures", "setting": "[4]", "value": "decrease in fungus in cultures"}]}
{"molecule": "Cc1cccc(N(C)C(=S)Oc2ccc3ccccc3c2)c1", "note": "[tolnaftate]", "values": [{"measurement": "conversion to negative culture at the end of therapy", "setting": "tinea pedis; [5]", "value": "showed conversion to negative culture"}, {"measurement": "improvements in clinical symptoms", "setting": "tinea pedis; [5]", "value": "significant improvements in clinical symptoms"}, {"measurement": "cure rate for tinea pedis", "setting": "tinea pedis; human, in vivo", "value": 80, "unit": "%"}]}
{"molecule": "Tea Tree Oil", "values": [{"measurement": "adverse side effects (skin scaling, dryness, irritation)", "setting": "acne vulgaris (P. acnes); human, in vivo", "value": "fewer adverse side effects"}]}
{"molecule": "O=C(OOC(=O)c1ccccc1)c1ccccc1", "note": "[benzoyl peroxide, reference compound]", "values": [{"measurement": "number of inflamed and non-inflamed lesions", "setting": "acne vulgaris (P. acnes); 124 patients, 5% Tea Tree Oil gel vs 5% benzoyl peroxide lotion", "value": "significantly reduced the number of inflamed and non-inflamed lesions"}]}
